Measurements reported in patent US20020142347A1, “Biosensor” (BIOSENSOR ApS, priority 2000, published 2002).
Substitutions are numbered along the chain they refer to.

How the values were obtained:
FACI-24 [1] = molecular target: T1, FACI-24 (Bos taurus, UniProt P07107, M25C); experiment: Fluorescence emission change of FACI-24 on titration with CoA and acyl-CoA esters; type: binding, bovine; conditions: emission maximum without ligand 510 nm; excitation 400 nm
T1 construct: made in house; host or cells: E. coli BL21(DE3)pLysS, pET3a vector
T1 sequence (P07107 2-87 M25C): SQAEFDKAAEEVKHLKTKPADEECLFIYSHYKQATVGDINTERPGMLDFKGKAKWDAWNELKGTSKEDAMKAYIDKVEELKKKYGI
Experimental: (§1) Quantitative determination of binding affinities (KD) were performed by isothermal titration micro calorimetry as previously described (Faergeman et. al., 1996; Biochemistry 35, 14118-14126). Qualitative evaluation of relative binding affinities were determined by isoelectrical focusing using the Pharmacia Fast Gel system according to the prescriptions given by the manufacture. Fluorescence emission changes induced by acyl-CoA binding to badan modified protein were determined as follows: 5 μl portions of acyl-CoAs were added from stock solutions disolved in binding buffer, (10 mM Hepes, 150 mM NaCL, 1 mM NaHPO4, pH 7.4) containing 3.4 μM Badan derivatized protein to a 1 ml 3.4 μM solution of the Badan derivatized ACBP in the same buffer. The fluorescence emission was measured on a SPEX FLOUROLOG (Industries Inc, Edison N.J., USA) with excitation at 400 nm and emission scan from 400 nm to 550 nm. The concentration of acyl-CoA in the aqueous phase was determined from the fluorescence emission sensitivities at 495 and 470 nm repectively essentially by the method described by (Grynkiewickz et. al.,1985, J. Biol. Chem. 260, 3440-3450) according to which:
(§2) Fluorescence titration emission spectra from 415 nm to 550 nm (excitation at 400 nm) were performed for CoA, C4:0-, C8:0-, C12:0-, C16:0-, and C20:0-CoA with all four mutated and badan modified proteins.
The emission maximum of FACI-24 without ligand added was 510 nm and titration with CoA, C4:0-, C8:0-, C12:0-, […], C16:0- and C20:0-CoA caused 0, 16, 34, 42, 46 and 46 nm downshift in emission maximum, respectively (results not shown). C16:0-CoA induced a 5,5 fold increase in emission at 464 nm (FIG. 10).
(§3) Titration of FACI with acyl-CoAs was done using a SPEX FLOUROLOG (Industries Inc, Edison N.J., USA) with excitation at 387 nm and emission at 460 nm, with both excitation and emission slits set to 4.5 nm. FACI (0.5-4.5 uM, as indicated) was dissolved in 1.5 ml binding buffer (10 mM HEPES 150 mM NaCl, 5 mM KCl, 1 mM Na2HPO4, pH 7.4) and titrated with a 10 μM acyl-CoA dissolved in binding buffer, with or without FACI added, as indicated. Fluorescence emission values (counts per second) measured without FACI added to the ligand stock solution were corrected for titrand dilution.

FACI-24 [2] = molecular target: T1, FACI-24; experiment: Fluorescence titration equilibrium binding analysis of CoA and acyl-CoA esters to FACI-24; parameters: species or system bovine; conditions: FACI-24 (1.5 μM) titrated with increasing CoA and acyl-CoA concentration; fitted binding curves, emission 460 nm; read-out: Kd (nM) ± S.E.
Experimental: Development of a mathematical expression describing the relationship between acyl-CoA concentration and FACI-24 fluorescence was performed essentially as by Richieri et al 1992, J Biol Chem, 267:23495-23501. However, where ligand binding to ADIFAB induces both a fluorescence intensity increase around 505 nm and a fluorescence intensity decrease around 432 nm, ligand binding to FACI-24 only causes an increase in fluorescence around 460 nm.
Derivatisation of an expression for the fluorescence value as a function of the acyl-coA concentration was done using the Scatchard equation as a starting point: [formula]
which has been used to fit the titration data.
The curves represent the best fit analysis from two independent experiment calculated and normalized as described above. The FACI-24 binding affinity increases dramatically when the acyl-chain length increases from C8 to C10 and C12, a smaller but significant drop in Kd is seen by increasing chain length from C12 to C14. C14 to C18 saturated acyl-CoA esters and C18:1-CoA binds with similar and very high affinities to FACI-24. In >0.1 M salt, FACI-24 binds acyl-CoAs with higher affinity and similar specificity as native unmodified bovine ACBP. The Kd for binding of C12-CoA and C16-CoA to native ACBP is 40 and 2.0 nM, respectively (Fulcery et al Biochemical, 1997, 325:423-428; Færgeman et al 1996, Biochemistry, 35:14118-14126). FACI-24 is highly specific for binding long-chain acyl-CoA esters.
as §3
Up to four parameters were fitted in this way, these were B, representing the point of saturation on the X axis, H, representing the maximum fluorescence, i.e. the fluorescence at saturating concentration of acyl-CoA, L, the minimum fluorescence value, i.e. the fluorescence of FACI-24 alone in buffer, and K, the Kd value lor the acyl-CoA in question. Initial estimates for the fittable parameters were typically: B=1, H=maximum fluorescence value measured, L=minimum fluorescence value measured (at acyl-CoA-concentration=0), and K as judged from the raw data, typically from 0.0001 uM to 0.1 uM for acyl-CoA longer than C10:0-CoA.
For each acyl-CoA at least two titrations and fittings were performed. To consider two or more titrations of the same acyl-CoA together and obtain a Kd value using all these titrations, both axes of the raw data were standardised using the fitted values of B, H and L in this way:
X axis standard=(raw X axis values)/Bfitted
Y axis standard=[(raw Y axis values)−Lfitted]/[Hfitted−Lfitted]
In this way all Y axis values should come to lie between 0 and 1 and the X axis value should be 1 at the point of saturation (FACI-24:acyl-CoA 1:1). Such adjusted data were pooled and fitted using DataFit. Typically, both H and B fitted to values close to 1 and L fitted to values close to 0. K was typically fitted to values somewhere between the two values obtained for the raw data.
This could be overcome by removing B from the fittable parameters list and instead setting it to a constant value of 1 and fitting again. This was typically done for both the raw and the standardised data.

FACI53 = molecular target: T2, FACI53 (Bos taurus, UniProt P07107, A54C); experiment: Fluorescence emission change of FACI-53 on titration with CoA and acyl-CoA esters; type: binding, bovine
T2 construct: badan (6-bromoacetyl-2-dimethylaminonaphthalene) fluorophore on the introduced Cys-53; made in house; host or cells: E. coli BL21(DE3)pLysS, pET3a vector
T2 sequence (P07107 2-87 A54C): T1 sequence (P07107 2-87 M25C) with C24M, A53C
Experimental: as §1, §2
Titration of FACI-53 dissolved in binding buffer with the above mentioned acyl-CoA esters produced a smooth downward shift in fluorescence emission maximum from 525 nm when no ligand was present to 508, 503, 490, 492, 496 and 514 with increasing concentrations of CoA, C4:0-, C8:0-, C12:0-, C16:0- and C20:0-CoA respectively.

native bovine ACBP = molecular target: T3, native bovine ACBP (Bos taurus, UniProt P07107); conditions: isothermal titration microcalorimetry, >0.1 M salt; literature; read-out: KD for binding to native bovine ACBP; cited from earlier work
T3 sequence (P07107 1-87): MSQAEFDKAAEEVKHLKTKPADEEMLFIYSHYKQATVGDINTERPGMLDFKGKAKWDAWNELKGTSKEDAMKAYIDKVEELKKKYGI

M24C-badan ACBP = molecular target: T4, M24C-badan ACBP (Bos taurus, UniProt P07107, M25C); experiment: Isothermal titration micro calorimetry of acyl-CoA binding to M24C-badan ACBP; parameters: species or system bovine; conditions: isotermal titration micro calorimetry
T4 construct: made in house; host or cells: E. coli BL21(DE3)pLysS, pET3a vector
T4 sequence (P07107 2-87 M25C): T1 sequence (P07107 2-87 M25C)
Experimental: as §1, with “which: […]” for “which:”

Downshift in emission maximum of FACI-24 (FACI-24 [1]): 42 nm
Kd (FACI-24 [2]): 10.2 ± 0.81 nM
Magnitude of emission of FACI-53, fold increase (FACI53): 2.7 fold
Fluorescence emission maximum of FACI-53 with ligand (FACI53; 525 nm when no ligand present, excitation 400 nm): 492 nm
Relative emission of FACI-53 at 495 nm, fold increase (FACI53; emission at 495 nm): 4.7 fold
Kd (M24C-badan ACBP): 40 nM
Compound: CCCCCCCCCCCC(=O)SCCNC(=O)CCNC(=O)[C@H](O)C(C)(C)COP(=O)(O)OP(=O)(O)OC[C@H]1O[C@@H](n2cnc3c(N)ncnc32)[C@H](O)[C@@H]1OP(=O)(O)O [C12:0-CoA, dodecanoyl-CoA]
Kd (native bovine ACBP): 40 nM
